From patent US20230085307A1, “PYRIDAZINONE COMPOUND AND HERBICIDE” (NISSAN CHEMICAL CORPORATION, priority 2019, published 2023)

Tests used:
green foxtail [1] = assay: Test Example 5: herbicidal effect by foliage application, plastic box (Table 20, symbol G); format: in vivo, green foxtail (Setaria viridis); conditions: foliage application, AAH 320 g/ha, evaluated three weeks after application
Method in brief: (§1)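 Plants were sown into sterilized diluvial soil under about 1.5 cm cover and kept in a greenhouse at 25° C. to 30° C. Fourteen days on, foliage received an even spray of the diluted emulsion. Herbicidal or crop effect was judged three weeks afterwards.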

redroot pigweed [2] = assay: Test Example 4: herbicidal effect by soil treatment (Table 19, symbol N); format: in vivo, redroot pigweed (Amaranthus retroflexus); conditions: amount of applied herbicide 320 g/ha
Method in brief: (§2)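 In this soil treatment, the formulated compound reached the seeds only through the soil: seeds were buried about 1.5 cm deep in sterilized diluvial soil, then the diluted emulsion was sprayed over the surface. After three weeks at 25° C. to 30° C. in a greenhouse, effects were graded on criteria from an earlier test.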

barnyard grass [3] = assay: Test Example 4: herbicidal effect by soil treatment (Table 19, symbol H); format: in vivo, barnyard grass (Echinochloa crus-galli); conditions: amount of applied herbicide 320 g/ha
Method in brief: as §2

Chinese sprangletop = assay: Test Example 3: herbicidal effect by foliage application, Wagner pot (Table 18, symbol D); format: in vivo, chinese sprangletop (Leptochloa chinensis); conditions: amount of applied herbicide 320 g/ha
Method in brief: (§3)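 Plants were sown in alluvial soil held under 0.1–0.5 cm standing water and grown 14 days in a greenhouse at 25–30 °C. An emulsifiable formulation, water-diluted to the set dose, was then sprayed onto the foliage, and effects were scored three weeks later using previously defined criteria.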

southern crabgrass [4] = assay: Test Example 4: herbicidal effect by soil treatment (Table 19, symbol F); format: in vivo, southern crabgrass (Digitaria ciliaris); conditions: amount of applied herbicide 320 g/ha
Method in brief: as §2

barnyard grass [5] = assay: Test Example 3: herbicidal effect by foliage application, Wagner pot (Table 18, symbol H); format: in vivo, barnyard grass (Echinochloa crus-galli); conditions: amount of applied herbicide 320 g/ha
Method in brief: as §3

blackgrass [6] = assay: Test Example 5: herbicidal effect by foliage application, plastic box (Table 20, symbol J); format: in vivo, blackgrass (Alopecurus myosuroides); conditions: foliage application, AAH 320 g/ha, evaluated three weeks after application
Method in brief: as §1

lambsquarters [7] = assay: Test Example 5: herbicidal effect by foliage application, plastic box (Table 20, symbol O); format: in vivo, lambsquarters (Chenopodium album); conditions: foliage application, AAH 320 g/ha, evaluated three weeks after application
Method in brief: as §1

windgrass [8] = assay: Test Example 4: herbicidal effect by soil treatment (Table 19, symbol L); format: in vivo, windgrass (Apera spica-venti); conditions: amount of applied herbicide 320 g/ha
Method in brief: as §2

wild oat [9] = assay: Test Example 5: herbicidal effect by foliage application, plastic box (Table 20, symbol I); format: in vivo, wild oat (Avena fatua); conditions: foliage application, AAH 320 g/ha, evaluated three weeks after application
Method in brief: as §1

lambsquarters [10] = assay: Test Example 4: herbicidal effect by soil treatment (Table 19, symbol O); format: in vivo, lambsquarters (Chenopodium album); conditions: amount of applied herbicide 320 g/ha
Method in brief: as §2

velvetleaf [11] = assay: Test Example 4: herbicidal effect by soil treatment (Table 19, symbol M); format: in vivo, velvetleaf (Abutilon theophrasti); conditions: amount of applied herbicide 320 g/ha
Method in brief: as §2

windgrass [12] = assay: Test Example 5: herbicidal effect by foliage application, plastic box (Table 20, symbol L); format: in vivo, windgrass (Apera spica-venti); conditions: foliage application, AAH 320 g/ha, evaluated three weeks after application
Method in brief: as §1

chickweed [13] = assay: Test Example 4: herbicidal effect by soil treatment (Table 19, symbol P); format: in vivo, common chickweed (Stellaria media); conditions: amount of applied herbicide 320 g/ha
Method in brief: as §2

velvetleaf [14] = assay: Test Example 5: herbicidal effect by foliage application, plastic box (Table 20, symbol M); format: in vivo, velvetleaf (Abutilon theophrasti); conditions: foliage application, AAH 320 g/ha, evaluated three weeks after application
Method in brief: as §1

barnyard grass [15] = assay: Test Example 5: herbicidal effect by foliage application, plastic box (Table 20, symbol H); format: in vivo, barnyard grass (Echinochloa crus-galli); conditions: foliage application, AAH 320 g/ha, evaluated three weeks after application
Method in brief: as §1

persian speedwell [16] = assay: Test Example 5: herbicidal effect by foliage application, plastic box (Table 20, symbol R); format: in vivo, Persian speedwell (Veronica persica); conditions: foliage application, AAH 320 g/ha, evaluated three weeks after application
Method in brief: as §1

blackgrass [17] = assay: Test Example 4: herbicidal effect by soil treatment (Table 19, symbol J); format: in vivo, blackgrass (Alopecurus myosuroides); conditions: amount of applied herbicide 320 g/ha
Method in brief: as §2

chickweed [18] = assay: Test Example 5: herbicidal effect by foliage application, plastic box (Table 20, symbol P); format: in vivo, common chickweed (Stellaria media); conditions: foliage application, AAH 320 g/ha, evaluated three weeks after application
Method in brief: as §1

redroot pigweed [19] = assay: Test Example 5: herbicidal effect by foliage application, plastic box (Table 20, symbol N); format: in vivo, redroot pigweed (Amaranthus retroflexus); conditions: foliage application, AAH 320 g/ha, evaluated three weeks after application
Method in brief: as §1

green foxtail [20] = assay: Test Example 4: herbicidal effect by soil treatment (Table 19, symbol G); format: in vivo, green foxtail (Setaria viridis); conditions: amount of applied herbicide 320 g/ha
Method in brief: as §2

Italian ryegrass [21] = assay: Test Example 4: herbicidal effect by soil treatment (Table 19, symbol K); format: in vivo, Italian ryegrass (Lolium multiflorum); conditions: amount of applied herbicide 320 g/ha
Method in brief: as §2

persian speedwell [22] = assay: Test Example 4: herbicidal effect by soil treatment (Table 19, symbol R); format: in vivo, Persian speedwell (Veronica persica); conditions: amount of applied herbicide 320 g/ha
Method in brief: as §2

southern crabgrass [23] = assay: Test Example 5: herbicidal effect by foliage application, plastic box (Table 20, symbol F); format: in vivo, southern crabgrass (Digitaria ciliaris); conditions: foliage application, AAH 320 g/ha, evaluated three weeks after application
Method in brief: as §1

Italian ryegrass [24] = assay: Test Example 5: herbicidal effect by foliage application, plastic box (Table 20, symbol K); format: in vivo, Italian ryegrass (Lolium multiflorum); conditions: foliage application, AAH 320 g/ha, evaluated three weeks after application
Method in brief: as §1

false cleavers = assay: Test Example 5: herbicidal effect by foliage application, plastic box (Table 20, symbol Q); format: in vivo, false cleavers (Galium spurium); conditions: foliage application, AAH 320 g/ha, evaluated three weeks after application
Method in brief: as §1

wild oat [25] = assay: Test Example 4: herbicidal effect by soil treatment (Table 19, symbol I); format: in vivo, wild oat (Avena fatua); conditions: amount of applied herbicide 320 g/ha
Method in brief: as §2

## Cc1nn(C)c(=O)c(-c2c(-c3ccc(S(=O)(=O)C(C)C)cc3)sc3ccc(F)cc23)c1O [2-259]
Green foxtail [1]
  G: green foxtail, herbicidal effect (criteria 0-5): 3 (Herbicidal rate of 40% or more and less than 70%)
Redroot pigweed [2]
  herbicidal effect on N: redroot pigweed: 4 (Herbicidal rate of 70% or more and less than 90%)
Barnyard grass [3]
  herbicidal effect on H: barnyard grass: 0 (Herbicidal rate of 5% or less (almost no effect))
Chinese sprangletop
  herbicidal effect on D: Chinese sprangletop: 3 (Herbicidal rate of 40% or more and less than 70%)
Southern crabgrass [4]
  herbicidal effect on F: southern crabgrass: 0 (Herbicidal rate of 5% or less (almost no effect))
Barnyard grass [5]
  herbicidal effect on H: barnyard grass: 4 (Herbicidal rate of 70% or more and less than 90%)
Blackgrass [6]
  J: blackgrass, herbicidal effect (criteria 0-5): 4 (Herbicidal rate of 70% or more and less than 90%)
Lambsquarters [7]
  O: lambsquarters, herbicidal effect (criteria 0-5): 4 (Herbicidal rate of 70% or more and less than 90%)
Windgrass [8]
  herbicidal effect on L: windgrass: 0 (Herbicidal rate of 5% or less (almost no effect))
Wild oat [9]
  I: wild oat, herbicidal effect (criteria 0-5): 4 (Herbicidal rate of 70% or more and less than 90%)
Lambsquarters [10]
  herbicidal effect on O: lambsquarters: 3 (Herbicidal rate of 40% or more and less than 70%)
Velvetleaf [11]
  herbicidal effect on M: velvetleaf: 3 (Herbicidal rate of 40% or more and less than 70%)
Windgrass [12]
  L: windgrass, herbicidal effect (criteria 0-5): 1 (Herbicidal rate of 5% or more and less than 20%)
Chickweed [13]
  herbicidal effect on P: chickweed: 1 (Herbicidal rate of 5% or more and less than 20%)
Velvetleaf [14]
  M: velvetleaf, herbicidal effect (criteria 0-5): 4 (Herbicidal rate of 70% or more and less than 90%)
Barnyard grass [15]
  H: barnyard grass, herbicidal effect (criteria 0-5): 3 (Herbicidal rate of 40% or more and less than 70%)
Persian speedwell [16]
  R: persian speedwell, herbicidal effect (criteria 0-5): 5 (Herbicidal rate of 90% or more (almost completely withered))
Blackgrass [17]
  herbicidal effect on J: blackgrass: 4 (Herbicidal rate of 70% or more and less than 90%)
Chickweed [18]
  P: chickweed, herbicidal effect (criteria 0-5): 5 (Herbicidal rate of 90% or more (almost completely withered))
Redroot pigweed [19]
  N: redroot pigweed, herbicidal effect (criteria 0-5): 5 (Herbicidal rate of 90% or more (almost completely withered))
Green foxtail [20]
  herbicidal effect on G: green foxtail: 1 (Herbicidal rate of 5% or more and less than 20%)
Italian ryegrass [21]
  herbicidal effect on K: Italian ryegrass: 4 (Herbicidal rate of 70% or more and less than 90%)
Persian speedwell [22]
  herbicidal effect on R: persian speedwell: 5 (Herbicidal rate of 90% or more (almost completely withered))
Southern crabgrass [23]
  F: southern crabgrass, herbicidal effect (criteria 0-5): 4 (Herbicidal rate of 70% or more and less than 90%)
Italian ryegrass [24]
  K: Italian ryegrass, herbicidal effect (criteria 0-5): 4 (Herbicidal rate of 70% or more and less than 90%)
False cleavers
  Q: false cleavers, herbicidal effect (criteria 0-5): 4 (Herbicidal rate of 70% or more and less than 90%)
Wild oat [25]
  herbicidal effect on I: wild oat: 0 (Herbicidal rate of 5% or less (almost no effect))
